# ChEMBL document CHEMBL3045868, “Synthesis and antibacterial activities of para-alkoxy phenyl--ketoaldehyde derivatives” (Med Chem Res, 2013)
# What was measured:
# Helicobacter pylori [1] = experiment: Antibacterial activity against Helicobacter pylori assessed as growth inhibition after 16 to 18 hr NCCLS agar dilution method; format: functional
# Helicobacter pylori [2] = experiment: Antibacterial activity against Helicobacter pylori 05-5 assessed as growth inhibition after 16 to 18 hr NCCLS agar dilution method; format: functional
# Helicobacter pylori [3] = experiment: Antibacterial activity against Helicobacter pylori ATCC 11637 assessed as growth inhibition after 16 to 18 hr NCCLS agar dilution method; format: functional
# Staphylococcus aureus [4] = experiment: Antibacterial activity against Staphylococcus aureus clinical isolate 3 assessed as growth inhibition at pH 7 after 16 to 18 hr by NCCLS agar dilution method; format: functional
# Staphylococcus aureus [5] = experiment: Antibacterial activity against Staphylococcus aureus clinical isolate 22 assessed as growth inhibition at pH 7 after 16 to 18 hr by NCCLS agar dilution method; format: functional
# Staphylococcus aureus [6] = experiment: Antibacterial activity against Staphylococcus aureus clinical isolate 19 assessed as growth inhibition at pH 7 after 16 to 18 hr by NCCLS agar dilution method; format: functional
# Staphylococcus aureus [7] = experiment: Bactericidal activity against methicillin-resistant Staphylococcus aureus isolate 5 after 24 hr; format: functional; conditions: isolate 5, 24 h
# Staphylococcus aureus [8] = experiment: Bactericidal activity against Staphylococcus aureus clinical isolate 9 after 24 hr; format: functional; conditions: isolate 9, 24 h
# Staphylococcus aureus [9] = experiment: Antibacterial activity against Staphylococcus aureus clinical isolate 4 assessed as growth inhibition at pH 5 after 16 to 18 hr by NCCLS agar dilution method; format: functional
# Staphylococcus aureus [10] = experiment: Antibacterial activity against Staphylococcus aureus clinical isolate 7 assessed as growth inhibition at pH 7 after 16 to 18 hr by NCCLS agar dilution method; format: functional
# Staphylococcus aureus [11] = experiment: Antibacterial activity against Staphylococcus aureus clinical isolate 19 assessed as growth inhibition at pH 9 after 16 to 18 hr by NCCLS agar dilution method; format: functional
# Staphylococcus aureus [12] = experiment: Bactericidal activity against methicillin-resistant Staphylococcus aureus after 24 hr; format: functional
# Staphylococcus aureus [13] = experiment: Antibacterial activity against Staphylococcus aureus clinical isolate 14 assessed as growth inhibition at pH 5 after 16 to 18 hr by NCCLS agar dilution method; format: functional
# Staphylococcus aureus [14] = experiment: Antibacterial activity against Staphylococcus aureus clinical isolate 23 assessed as growth inhibition at pH 9 after 16 to 18 hr by NCCLS agar dilution method; format: functional
# Staphylococcus aureus [15] = experiment: Antibacterial activity against Staphylococcus aureus clinical isolate 22 assessed as growth inhibition at pH 9 after 16 to 18 hr by NCCLS agar dilution method; format: functional
# Staphylococcus aureus [16] = experiment: Antibacterial activity against Staphylococcus aureus clinical isolate 9 assessed as growth inhibition at pH 5 after 16 to 18 hr by NCCLS agar dilution method; format: functional
# Staphylococcus aureus [17] = experiment: Antibacterial activity against Staphylococcus aureus clinical isolate 5 assessed as growth inhibition at pH 5 after 16 to 18 hr by NCCLS agar dilution method; format: functional
# Staphylococcus aureus [18] = experiment: Antibacterial activity against Staphylococcus aureus clinical isolate 17 assessed as growth inhibition at pH 5 after 16 to 18 hr by NCCLS agar dilution method; format: functional
# Staphylococcus aureus [19] = experiment: Antibacterial activity against Staphylococcus aureus clinical isolate assessed as growth inhibition after 16 to 18 hr by NCCLS agar dilution method; format: functional
# Staphylococcus aureus [20] = experiment: Antibacterial activity against Staphylococcus aureus clinical isolate 4 assessed as growth inhibition after 16 to 18 hr by NCCLS agar dilution method; format: functional
# Staphylococcus aureus [21] = experiment: Antibacterial activity against methicillin-resistant Staphylococcus aureus assessed as growth inhibition after 16 to 18 hr by NCCLS agar dilution method; format: functional
# Staphylococcus aureus [22] = experiment: Antibacterial activity against Staphylococcus aureus clinical isolate 23 assessed as growth inhibition at pH 7 after 16 to 18 hr by NCCLS agar dilution method; format: functional
# Helicobacter pylori [23] = experiment: Antibacterial activity against Helicobacter pylori 06-7 assessed as growth inhibition after 16 to 18 hr NCCLS agar dilution method; format: functional
# Staphylococcus aureus [24] = experiment: Antibacterial activity against Staphylococcus aureus clinical isolate 12 assessed as growth inhibition at pH 7 after 16 to 18 hr by NCCLS agar dilution method; format: functional
# Staphylococcus aureus [25] = experiment: Antibacterial activity against Staphylococcus aureus clinical isolate 20 assessed as growth inhibition at pH 7 after 16 to 18 hr by NCCLS agar dilution method; format: functional
# Staphylococcus aureus [26] = experiment: Antibacterial activity against Staphylococcus aureus clinical isolate 4 assessed as growth inhibition at pH 9 after 16 to 18 hr by NCCLS agar dilution method; format: functional
# Staphylococcus aureus [27] = experiment: Antibacterial activity against Staphylococcus aureus clinical isolate 22 assessed as growth inhibition at pH 5 after 16 to 18 hr by NCCLS agar dilution method; format: functional
# Staphylococcus aureus [28] = experiment: Bactericidal activity against Staphylococcus aureus clinical isolate after 24 hr; format: functional
# Helicobacter pylori [29] = experiment: Antibacterial activity against Helicobacter pylori 05-4 assessed as growth inhibition after 16 to 18 hr NCCLS agar dilution method; format: functional, 05-Apr
# Staphylococcus aureus [30] = experiment: Antibacterial activity against Staphylococcus aureus clinical isolate 17 assessed as growth inhibition at pH 7 after 16 to 18 hr by NCCLS agar dilution method; format: functional
# Helicobacter pylori [31] = experiment: Antibacterial activity against Helicobacter pylori 05-12 assessed as growth inhibition after 16 to 18 hr NCCLS agar dilution method; format: functional
# Staphylococcus aureus [32] = experiment: Antibacterial activity against Staphylococcus aureus clinical isolate 6 assessed as growth inhibition at pH 5 after 16 to 18 hr by NCCLS agar dilution method; format: functional
# Helicobacter pylori [33] = experiment: Antibacterial activity against Helicobacter pylori 05-2 assessed as growth inhibition after 16 to 18 hr NCCLS agar dilution method; format: functional
# Staphylococcus aureus [34] = experiment: Antibacterial activity against methicillin-resistant Staphylococcus aureus isolate 3 assessed as growth inhibition after 16 to 18 hr by NCCLS agar dilution method; format: functional
# Staphylococcus aureus [35] = experiment: Bactericidal activity against Staphylococcus aureus clinical isolate 7 after 24 hr; format: functional; conditions: isolate 7, 24 h
# Staphylococcus aureus [36] = experiment: Bactericidal activity against methicillin-resistant Staphylococcus aureus isolate 1 after 24 hr; format: functional; conditions: isolate 1, 24 h
# Helicobacter pylori [37] = experiment: Antibacterial activity against Helicobacter pylori 06-4 assessed as growth inhibition after 16 to 18 hr NCCLS agar dilution method; format: functional
# Staphylococcus aureus [38] = experiment: Antibacterial activity against Staphylococcus aureus clinical isolate 20 assessed as growth inhibition at pH 9 after 16 to 18 hr by NCCLS agar dilution method; format: functional
# Staphylococcus aureus [39] = experiment: Antibacterial activity against Staphylococcus aureus clinical isolate 6 assessed as growth inhibition at pH 7 after 16 to 18 hr by NCCLS agar dilution method; format: functional
# Helicobacter pylori [40] = experiment: Antibacterial activity against Helicobacter pylori 05-3 assessed as growth inhibition after 16 to 18 hr NCCLS agar dilution method; format: functional
# Staphylococcus aureus [41] = experiment: Antibacterial activity against Staphylococcus aureus clinical isolate 13 assessed as growth inhibition at pH 9 after 16 to 18 hr by NCCLS agar dilution method; format: functional
# Helicobacter pylori [42] = experiment: Antibacterial activity against Helicobacter pylori 06-1 assessed as growth inhibition after 16 to 18 hr NCCLS agar dilution method; format: functional
# Staphylococcus aureus [43] = experiment: Antibacterial activity against Staphylococcus aureus clinical isolate 21 assessed as growth inhibition at pH 7 after 16 to 18 hr by NCCLS agar dilution method; format: functional
smiles,measurement,setting,value
CO/N=C/CC(=O)c1ccc(OC)cc1,MIC50,Helicobacter pylori [1],32 µg/mL
same,MIC90,Helicobacter pylori [1],32 µg/mL
same,MIC,Helicobacter pylori [2],32 µg/mL
same,MIC,Helicobacter pylori [3],32 µg/mL
same,MIC,Staphylococcus aureus [4],16 µg/mL
same,MIC,Staphylococcus aureus [5],16 µg/mL
same,MIC,Staphylococcus aureus [6],16 µg/mL
same,MBC,Staphylococcus aureus [7],256 µg/mL
same,MBC,Staphylococcus aureus [8],128 µg/mL
same,MIC,Staphylococcus aureus [9],64 µg/mL
same,MIC,Staphylococcus aureus [10],8 µg/mL
same,MIC,Staphylococcus aureus [11],16 µg/mL
same,MBC50,Staphylococcus aureus [12],256 µg/mL
same,MBC90,Staphylococcus aureus [12],256 µg/mL
same,MIC,Staphylococcus aureus [13],32 µg/mL
same,MIC,Staphylococcus aureus [14],8 µg/mL
same,MIC,Staphylococcus aureus [15],8 µg/mL
same,MIC,Staphylococcus aureus [16],32 µg/mL
same,MIC,Staphylococcus aureus [17],16 µg/mL
same,MIC,Staphylococcus aureus [18],16 µg/mL
same,MIC50,Staphylococcus aureus [19],16 µg/mL
same,MIC90,Staphylococcus aureus [19],16 µg/mL
same,MIC,Staphylococcus aureus [20],16 µg/mL
same,MIC50,Staphylococcus aureus [21],8 µg/mL
same,MIC90,Staphylococcus aureus [21],8 µg/mL
same,MIC,Staphylococcus aureus [22],16 µg/mL
same,MIC,Helicobacter pylori [23],32 µg/mL
same,MIC,Staphylococcus aureus [24],32 µg/mL
same,MIC,Staphylococcus aureus [25],16 µg/mL
same,MIC,Staphylococcus aureus [26],8 µg/mL
same,MIC,Staphylococcus aureus [27],16 µg/mL
same,MBC50 (60.1); MBC90 (60.2),Staphylococcus aureus [28]; read-out: MIC50,64 µg/mL
same,MBC50 (60.1); MBC90 (60.2),Staphylococcus aureus [28]; read-out: MIC90,128 µg/mL
same,MIC,Helicobacter pylori [29],16 µg/mL
same,MIC,Staphylococcus aureus [30],16 µg/mL
same,MIC,Helicobacter pylori [31],> 128 µg/mL
same,MIC,Staphylococcus aureus [32],64 µg/mL
same,MIC,Helicobacter pylori [33],16 µg/mL
same,MIC,Staphylococcus aureus [34],8 µg/mL
same,MBC,Staphylococcus aureus [35],128 µg/mL
same,MBC,Staphylococcus aureus [36],128 µg/mL
same,MIC,Helicobacter pylori [37],32 µg/mL
same,MIC,Staphylococcus aureus [38],8 µg/mL
same,MIC,Staphylococcus aureus [39],32 µg/mL
same,MIC,Helicobacter pylori [40],16 µg/mL
same,MIC,Staphylococcus aureus [41],8 µg/mL
same,MIC,Helicobacter pylori [42],16 µg/mL
same,MIC,Staphylococcus aureus [43],16 µg/mL
